The test deals with T1, Recombinant human H-PGDS (Homo sapiens, UniProt O60760).
T1 construct: made in house; host or cells: E. coli
In words: H-PGDS inhibitory activity (prostaglandin D2 production from prostaglandin H2, measured by LC-MS/MS). The format is biochemical. The note with it: recombinant human H-PGDS 1.0 nM expressed in E. coli; prostaglandin H2 25 μM; preincubated 15 minutes on ice, reacted on ice for 1 minute; concentration that inhibits prostaglandin D2 production by 50%. The essentials: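 PGD2 formed from 25 µM prostaglandin H2 during a 1-min on-ice reaction was measured by LC-MS/MS after an FeCl2/citric acid stop. The enzyme was 1.0 nM E. coli-expressed human H-PGDS in Tris-HCl pH 8.0 buffer with MgCl2, reduced glutathione and γ-globulin, preincubated with compound for 15 min on ice. Production was normalised to DMSO controls minus the no-enzyme background.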

Structures are written as SMILES.

T1 sequence (O60760 whole entry): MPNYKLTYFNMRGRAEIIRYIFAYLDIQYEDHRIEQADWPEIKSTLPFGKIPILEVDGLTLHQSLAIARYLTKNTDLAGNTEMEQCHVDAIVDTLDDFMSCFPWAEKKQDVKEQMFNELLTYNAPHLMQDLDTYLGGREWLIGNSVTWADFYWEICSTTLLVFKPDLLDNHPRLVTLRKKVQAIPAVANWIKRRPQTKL

Take `CC(C)(O)[C@H]1CC[C@H](NC(=O)c2ccc(-c3nc(CO)cc4occc34)cc2)CC1` [Example 319, 4-[6-(hydroxymethyl)furo[3,2-c]pyridin-4-yl]-N-[trans-4-(2-hydroxypropan-2-yl)cyclohexyl]benzamide]: the IC50 – broadly, the concentration needed to halve the response being measured – is 1.6 nM.

For `Cn1cc(CNC(=O)c2ccc(-c3nccc4[nH]ccc34)cc2)cn1` [Example 55, N-[(1-methyl-1H-pyrazol-4-yl)methyl]-4-(1H-pyrrolo[3,2-c]pyridin-4-yl)benzamide], the IC50 came out at 1.2 nM. The result for `O=C(N[C@H]1CC[C@H](NCC(F)F)CC1)c1ccc(-c2nccc3occc23)cc1` [Example 294, N-{trans-4-[(2,2-difluoroethyl)amino]cyclohexyl}-4-(furo[3,2-c]pyridin-4-yl)benzamide] reads 1.1 nM; that for `O=C(NC1CCN(C(=O)C2CC2)CC1)c1ccc(-c2nccc3occc23)cc1` [Example 235, N-[1-(cyclopropanecarbonyl)piperidin-4-yl]-4-(furo[3,2-c]pyridin-4-yl)benzamide], 1.2 nM. The value for `O=C(NC1CCN(c2ccnc(F)c2)CC1)c1ccc(-c2nccc3occc23)cc1` [Example 159, N-[1-(2-fluoropyridin-4-yl)piperidin-4-yl]-4-(furo[3,2-c]pyridin-4-yl)benzamide] was 1.3 nM. The value for `O=C(NCc1ccccc1)c1ccc(-c2nccc3sccc23)cc1` [Example 59, N-benzyl-4-(thieno[3,2-c]pyridin-4-yl)benzamide] was 9.6 nM.

`O=C(NC1CCN(c2ccnc(Cl)c2)CC1)c1ccc(-c2nccc3occc23)cc1` [Example 165, N-[1-(2-chloropyridin-4-yl)piperidin-4-yl]-4-(furo[3,2-c]pyridin-4-yl)benzamide]: the IC50 is 1.3 nM. The value for `COCCNC(=O)c1ccc(-c2nccc3[nH]ccc23)cc1` [Example 23, N-(2-methoxyethyl)-4-(1H-pyrrolo[3,2-c]pyridin-4-yl)benzamide] was 0.79 nM; that for `O=C(NC1CCN(c2ncc(Br)cn2)CC1)c1ccc(-c2nccc3occc23)cc1` [Example 154, N-[1-(5-bromopyrimidin-2-yl)piperidin-4-yl]-4-(furo[3,2-c]pyridin-4-yl)benzamide] was 6.3 nM; that for `O=C(NCC1CCOCC1)c1ccc(-c2nccc3occc23)cc1` [Example 82, 4-(furo[3,2-c]pyridin-4-yl)-N-[(tetrahydro-2H-pyran-4-yl)methyl] benzamide] was 11 nM. The result for `O=C(N[C@H]1CCN(CC(F)(F)F)C1)c1ccc(-c2nccc3occc23)cc1` [Example 199, (S)-4-(furo[3,2-c]pyridin-4-yl)-N-[1-(2,2,2-trifluoroethyl)pyrrolidin-3-yl]benzamide] reads 9.7 nM; that for `CC(C)(O)[C@]1(O)CC[C@@H](NC(=O)c2ccc(-c3nccc4occc34)cc2)CC1` [Example 350, 4-(furo[3,2-c]pyridin-4-yl)-N-[cis-4-hydroxy-4-(2-hydroxypropan-2-yl)cyclohexyl]benzamide], 27 nM.

On to `CC(C)(O)CO[C@H]1CC[C@@H](NC(=O)c2ccc(-c3nccc4occc34)cc2)CC1` [Example 348, 4-(furo[3,2-c]pyridin-4-yl)-N-[cis-4-(2-hydroxy-2-methylpropoxy)cyclohexyl]benzamide], for which the IC50 is 1.7 nM. The value for `CCCCNC(=O)c1ccc(-c2nccc3occc23)cc1` [Example 75, N-butyl-4-(furo[3,2-c]pyridin-4-yl)benzamide] was 20 nM. The value for `CCC(=O)N[C@H]1CC[C@H](NC(=O)c2ccc(-c3nccc4occc34)cc2)CC1` [Example 298, 4-(furo[3,2-c]pyridin-4-yl)-N-(trans-4-propionamidocyclohexyl)benzamide] was 3.4 nM. Consider `CC[C@]1(O)CC[C@@H](NC(=O)c2ccc(-c3nccc4occc34)cc2)CC1` [Example 290, N-(cis-4-ethyl-4-hydroxycyclohexyl)-4-(furo[3,2-c]pyridin-4-yl)benzamide], for which the IC50 was determined as 1.3 nM. Turning to `O=C(NCc1cccc(CO)c1)c1ccc(-c2nccc3occc23)cc1` [Example 66, 4-(furo[3,2-c]pyridin-4-yl)-N-[3-(hydroxymethyl)benzyl]benzamide], the IC50 came to 6.4 nM.

With `CC(=O)N1CCC(NC(=O)c2ccc(-c3nccc4occc34)cc2)CC1` [Example 186, N-(1-acetylpiperidin-4-yl)-4-(furo[3,2-c]pyridin-4-yl)benzamide], the IC50 came to 2.3 nM. The value for `CCCCn1nnnc1N1CCC(NC(=O)c2ccc(-c3nccc4occc34)cc2)CC1` [Example 241, N-[1-(1-butyl-1H-tetrazol-5-yl)piperidin-4-yl]-4-(furo[3,2-c]pyridin-4-yl)benzamide] was 2.7 nM; that for `O=C(NC1CC2(C1)CN(c1ncccn1)C2)c1ccc(-c2nccc3occc23)cc1` [Example 210, 4-(furo[3,2-c]pyridin-4-yl)-N-[2-(pyrimidin-2-yl)-2-azaspiro[3.3]heptan-6-yl]benzamide] was 3.5 nM; that for `CS(=O)(=O)c1cccc(NC(=O)c2ccc(-c3nccc4occc34)cc2)c1` [Example 106, 4-(furo[3,2-c]pyridin-4-yl)-N-[3-(methylsulfonyl)phenyl]benzamide] was 3.7 nM.

On to `N#Cc1cnc(N2CCC(NC(=O)c3ccc(-c4nccc5occc45)cc3)CC2)nc1` [Example 173, N-[1-(5-cyanopyrimidin-2-yl)piperidin-4-yl]-4-(furo[3,2-c]pyridin-4-yl)benzamide], for which the IC50 is 0.83 nM. The result for `Cc1cc(CNC(=O)c2ccc(-c3nccc4[nH]ccc34)cc2)nn1C` [Example 38, N-[(1,5-dimethyl-1H-pyrazol-3-yl)methyl]-4-(1H-pyrrolo[3,2-c]pyridin-4-yl)benzamide] reads 1.3 nM; that for `CC(C)(O)[C@H]1CC[C@H](NC(=O)c2ccc(-c3ncc(CO)c4occc34)cc2)CC1` [Example 135, 4-[7-(hydroxymethyl)furo[3,2-c]pyridin-4-yl]-N-[trans-4-(2-hydroxypropan-2-yl)cyclohexyl]benzamide], 14 nM; that for `O=C(N[C@H]1CC[C@@H](O)CC1)c1ccc(-c2nccc3occc23)cc1` [Example 262, 4-(furo[3,2-c]pyridin-4-yl)-N-(cis-4-hydroxycyclohexyl)benzamide], 2.5 nM.

For `CC(=O)NCCCCNC(=O)c1ccc(-c2nccc3[nH]ccc23)cc1` [Example 29, N-(4-acetamidobutyl)-4-(1H-pyrrolo[3,2-c]pyridin-4-yl)benzamide], the IC50 was 0.46 nM. The value for `CCn1nccc1CNC(=O)c1ccc(-c2nccc3[nH]ccc23)cc1` [Example 51, N-[(1-ethyl-1H-pyrazol-5-yl)methyl]-4-(1H-pyrrolo[3,2-c]pyridin-4-yl)benzamide] was 0.63 nM.

As to `CC(C)(O)[C@H]1CC[C@H](NC(=O)c2ccc(-c3ncc(F)c4occc34)cc2)CC1` [Example 136, 4-(7-fluorofuro[3,2-c]pyridin-4-yl)-N-[trans-4-(2-hydroxypropan-2-yl)cyclohexyl]benzamide], the IC50 was 9 nM. The result for `O=C(NCC1CC1)c1ccc(-c2nccc3[nH]ccc23)cc1` [Example 18, N-(cyclopropyl-methyl)-4-(1H-pyrrolo[3,2-c]pyridin-4-yl)benzamide] reads 1 nM. The value for `O=C(NC1CCN(C(=O)CC(F)(F)F)CC1)c1ccc(-c2nccc3occc23)cc1` [Example 246, 4-(furo[3,2-c]pyridin-4-yl)-N-[1-(3,3,3-trifluoropropanoyl)piperidin-4-yl]benzamide] was 1.8 nM; that for `O=C(N[C@H]1CCCC[C@@H]1O)c1ccc(-c2nccc3occc23)cc1` (relative stereo) [Example 274, 4-(furo[3,2-c]pyridin-4-yl)-N-(trans-2-hydroxycyclohexyl)benzamide] was 13 nM.

Take `NS(=O)(=O)c1cccc(NC(=O)c2ccc(-c3nccc4occc34)cc2)c1` [Example 105, 4-(furo[3,2-c]pyridin-4-yl)-N-(3-sulfamoylphenyl) benzamide]: the IC50 is 2.3 nM. The result for `CC(C)(O)[C@H]1CC[C@H](NC(=O)c2ccc(-c3nccc4sccc34)cc2)CC1` [Example 63, N-[trans-4-(2-hydroxypropan-2-yl)cyclohexyl]-4-(thieno[3,2-c]pyridin-4-yl)benzamide] reads 1.5 nM; that for `O=C(NC12CCC(O)(CC1)CC2)c1ccc(-c2nccc3occc23)cc1` [Example 260, 4-(furo[3,2-c]pyridin-4-yl)-N-(4-hydroxybicyclo[2.2.2]octan-1-yl)benzamide], 1.9 nM; that for `Cn1ccc2c(-c3ccc(C(=O)N[C@H]4CC[C@H](C(C)(C)O)CC4)cc3)nccc21` [Example 4, N-[trans-4-(2-hydroxypropan-2-yl)cyclohexyl]-4-(1-methyl-1H-pyrrolo[3,2-c]pyridin-4-yl)benzamide], 7.4 nM.

On to `O=C(NC1CCCCC1)c1ccc(-c2nccc3[nH]ccc23)cc1` [Example 5, N-cyclohexyl-4-(1H-pyrrolo[3,2-c]pyridin-4-yl)benzamide], for which the IC50 was determined as 1.6 nM. The result for `O=C(Nc1cc(C2CC2)[nH]n1)c1ccc(-c2nccc3occc23)cc1` [Example 104, N-(5-cyclopropyl-1H-pyrazol-3-yl)-4-(furo[3,2-c]pyridin-4-yl)benzamide] reads 8 nM; that for `O=C(NC1CC1)c1ccc(-c2nccc3occc23)cc1` [Example 95, N-cyclopropyl-4-(furo[3,2-c]pyridin-4-yl)benzamide], 8.7 nM; that for `C[C@]1(O)CC[C@@H](NC(=O)c2ccc(-c3nccc4occc34)cc2)CC1` [Example 283, 4-(furo[3,2-c]pyridin-4-yl)-N-(cis-4-hydroxy-4-methylcyclohexyl)benzamide], 1.7 nM.

The values above are taken from US20230339937A1, “CONDENSED RING COMPOUNDS THAT INHIBIT H-PGDS” (SATO PHARMACEUTICAL CO., LTD., priority 2020, published 2023).
